Test results taken from article PMC8305652, “Copper(II) Complexes Containing Natural Flavonoid Pomiferin Show Considerable In Vitro Cytotoxicity and Anti-inflammatory Effects” (International Journal of Molecular Sciences, 2021).

What was measured:
NF-κB = test system: NF-κB; parameters: method as in PMID 23947936; settings: 1.25 µM; cited from earlier work
[1] = test system: ACHN, NCI-H23, PC-3, MDA-MB-231, LOX-IMVI, colon carcinoma cell lines; parameters: method as in PMID 17662606; settings: 24 h of incubation, range over cell lines; cited from earlier work
[2] = test system: HuCCA-1, KB, HeLa and T47D cell lines; parameters: method as in PMID 21922909; settings: 48 h incubation, range over cell lines; cited from earlier work
[3] = test system: caspase 3 (Casp-3) in THP-1 cells; experiment: Western blotting of apoptosis-related proteins; type: cell-based, human; settings: THP-1, complexes 4 µM, 24 h, Western blot
Method: In addition to the above-mentioned methods, the Western blotting method was used to shed light on the mechanisms associated with caspase 3 activation in the THP-1 cells. Two and a half milliliters of floating THP-1 monocytes resuspended in a serum-free RPMI 1640 medium were seeded into 6-well plates at the concentration of 10^6 cells/mL. Two hours later, complexes 3 and 5 were added at the concentration level of 4 µM. After 24 h incubation, the cells were collected by centrifugation (3000 g/5 min/4 °C), washed by cold PBS and resuspended in an ice-cold lysis buffer (50 mM Tris-HCl pH 7.5, 1 mM EGTA, 1 mM EDTA, 1 mM sodium orthovanadate, 50 mM sodium fluoride, 5 mM sodium pyrophosphate, 270 mM sucrose) with Roche cOmplete protease inhibitors (Roche Diagnostics, Basel, Switzerland). The cell lysates were centrifuged at 3000 g/5 min/4 °C and supernatants were mixed with a 5x Laemmli buffer [containing 250 mM Tris-HCl pH 6.8, 10% (w/v) SDS, 30% (v/v) glycerol, 5% (v/v) β-mercaptoethanol, 0.04% (w/v) bromphenol blue] and incubated at 70 °C for 5 min. […] The membranes were incubated at 4 °C for 16 h with a primary anti-cleaved caspase 3 (p17) antibody at the dilution 1:1000 (Cell Signaling, Danvers, MA, USA; products No. 9664), and an Apoptosis WB Cocktail (Abcam, Cambridge, UK; product No. ab136812) at the dilution recommended by the provider to detect β-actin, cleaved poly-(ADP-ribose) polymerase (PARP) and pro-caspase 3. After washing in a TBST buffer, the secondary anti-rabbit IgG antibody (Sigma-Aldrich, product No. A0545) was diluted 1:2500 and applied to the membranes, which were then incubated for 1 h at the laboratory temperature (~22 °C). The amount of bound secondary antibody was determined using an ECL reagent (Bio-Rad, Hercules, CA, USA). Chemiluminescence was detected using a Syngene PXi4 chemiluminescence imaging system (Cambridge, UK).

Molecule	NF-κB activation by inhibition of IκB degradation (NF-κB)	GI50 [1]	ED50 [2]	levels of pro-caspase 3 (pro-Casp-3) [3]	proteolytically activated Casp-3 (verified by cleaved PARP-1) ([3]; cisplatin 10 µM)
CC(C)=CCc1c2c(c3occ(-c4ccc(O)c(O)c4)c(=O)c3c1O)C=CC(C)(C)O2 [pomiferin, 3-(3,4-dihydroxyphenyl)-5-hydroxy-8,8-dimethyl-6-(3-methylbut-2-ene-1-yl)-4H,8H-benzo[1,2-b:3,4-b′]dipyran-4-one]	inhibited NF-κB activation	1.32 to 13.3 µM	0.6 to 24 µM		
(3-(3,4-dihydroxyphenyl)-8,8-dimethyl-6-(3-methylbut-2-en-1-yl)-4H,8H-benzo[1,2-b:3,4-b′]dipyran-4-one-5-olato-κ^2O4:O5)(dipyrido[3,2-a:2′,3′-c]phenazine–κ^2N4:N5)copper(II) nitrate methanol solvate [Complex 5]				dramatically decreased	only minor activity of Casp-3
